The source of these data is article PMC10254530, “Design and Synthesis of Brefeldin A-Isothiocyanate Derivatives with Selectivity and Their Potential for Cervical Cancer Therapy” (Molecules, 2023).

The subject of assay [1] is A549 cells. Kind of assay: CCK-8 antiproliferative assay, A549. It is filed as cell-based. The conditions noted are these: Homo sapiens, read-out: IC50 A549. The procedure:
(§1) All cells were cultured in Dulbecco’s Modified Eagle’s Medium (DMEM) (Burlington, MA, USA) or Roswell Park Memorial Institute (RPMI)-1640 medium containing 10% fetal bovine serum and 1% penicillin/streptomycin in an incubator at 37 °C and 5% CO2. […] Cell suspension with a concentration of 8 × 10^4 cells/mL was prepared after cell counting. 100 μL cell suspension was added to each well of the 96-well plate and then placed in an incubator overnight. Most of the derivatives were configured into 80 mM, 20 mM or 4 mM stock solution in DMSO, and the stock solution concentration of BFA and paclitaxel was 0.4 mM. […] The medium in each well was discarded, and 100 μL of gradient diluted derivative solution was added (the control group was added with serum-free medium).

Assay [2] relates to HepG2 cells. In words: CCK-8 antiproliferative assay, HepG2. It is filed as cell-based. The conditions noted are these: Homo sapiens, read-out: IC50 HepG2. The procedure:
as §1
On the technique in general: Tetrazolium dyes change colour on reduction, which living cells bring about.

Assay [3] deals with A375 cells. In words: CCK-8 antiproliferative assay, A375. It is filed as cell-based. The conditions noted are these: Homo sapiens, read-out: IC50 A375. The procedure: as §1
Assay [4] deals with L-02 cells. Kind of assay: CCK-8 cytotoxicity assay, normal liver L-02. As to conditions: Homo sapiens, read-out: IC50 L-02. The format is cell-based. The procedure:
as §1

The test system of assay [5] is MDA-MB-231 cells. Kind of assay: CCK-8 antiproliferative assay, MDA-MB-231. It is filed as cell-based. As to conditions: Homo sapiens, read-out: IC50 MDA-MB-231. The procedure: as §1
Assay [6] deals with HeLa cells. Kind of assay: CCK-8 antiproliferative assay, HeLa. It is filed as cell-based, human. The conditions noted are these: for IC50: Homo sapiens, HeLa, read-out: IC50 HeLa; for SIHeLa, selectivity index between L-02 and HeLa: SI = IC50(L-02)/IC50(HeLa). The procedure: as §1
[7] abbreviates: A549, CCK-8, 48 h, mean ± SD of three experiments.
Setting [8] is: HepG2, CCK-8, 48 h, mean ± SD of three experiments.
Where [9] appears, read: A-375, CCK-8, 48 h, mean ± SD of three experiments.
The mark [10] stands for this setting: L02, CCK-8, 48 h, normal liver cells, mean ± SD of three experiments.
Setting [11] is: MDA-MB-231, CCK-8, 48 h, mean ± SD of three experiments.
Setting [12] is: CCK-8, 48 h, mean ± SD of three experiments.

Where a name gives a salt, the structure may show the parent alone. Read-outs that look alike come from different tables or passages of the source. Some results are limits rather than exact numbers.

The term IC50 denotes the concentration that inhibits the measured activity by half. For the molecule `C[C@H]1CCC/C=C/[C@@H]2C[C@H](O)C[C@H]2[C@H](OC(=O)/C=C\C(=O)OCCOCCOC(=O)c2ccc(N=C=S)cc2)/C=C/C(=O)O1` [Compound 9j, (1R,2E,6S,10E,11aS,13S,14aR)-13-Hydroxy-6-methyl-4-oxo-1,6,7,8,9,11a,12,13,14,14a-decahydro-4H-cyclopenta[f][1]oxacyclotridecin-1-yl (2-(2-((4-isothiocyanatobenzoyl)oxy)ethoxy)ethyl) maleate], the IC50 in assay [1] (setting [7]) is 4.61 ± 0.12 µM; in assay [2] (setting [8]), 3.69 ± 0.14 µM; in assay [3] (setting [9]), 1.5 ± 0.05 µM; in assay [4] (setting [10]) it was 10.8 ± 0.57 µM; in assay [5] (setting [11]), 2.27 ± 0.03 µM; in assay [6] (setting [12]) it was 1.71 ± 0.02 µM. In addition, the “SIHeLa, selectivity index between L-02 and HeLa” value in assay [6] was 6.29.

Consider `C[C@H]1CCC/C=C/[C@@H]2C[C@H](O)C[C@H]2[C@H](OC(=O)CCC(=O)OCCCCCCOC(=O)c2ccc(N=C=S)cc2)/C=C/C(=O)O1` [Compound 9e, (1R,2E,6S,10E,11aS,13S,14aR)-13-Hydroxy-6-methyl-4-oxo-1,6,7,8,9,11a,12,13,14,14a-decahydro-4H-cyclopenta[f][1]oxacyclotridecin-1-yl (6-((4-isothiocyanatobenzoyl)oxy)hexyl) succinate], for which the IC50 in assay [1] (setting [7]) came out at 2.59 ± 0.13 µM; in assay [2] (setting [8]), 5.77 ± 0.07 µM; in assay [3] (setting [9]), 3.87 ± 0.35 µM; in assay [4] (setting [10]), 7.87 ± 0.33 µM; in assay [5] (setting [11]) it was 1.56 ± 0.05 µM; in assay [6] (setting [12]), 0.81 ± 0.03 µM.

Regarding `C[C@H]1CCC/C=C/[C@@H]2C[C@H](OC(=O)c3ccc(N=C=S)cc3)C[C@H]2[C@H](O)/C=C/C(=O)O1` [Compound 7, (1R,2E,6S,10E,11aS,13S,14aR)-1-Hydroxy-6-methyl-4-oxo-1,6,7,8,9,11a,12,13,14,14a-decahydro-4H-cyclopenta[f][1]oxacyclotridecin-13-yl 4-isothiocyanatobenzoate], the IC50 in assay [1] (setting [7]) was 20.4 ± 1.31 µM; in assay [2] (setting [8]) it was greater than 40 µM; in assay [3] (setting [9]), 5.78 ± 0.1 µM; in assay [4] (setting [10]), 8.6 ± 0.71 µM; in assay [5] (setting [11]), 17 ± 1.21 µM; in assay [6] (setting [12]) it was 3.02 ± 0.23 µM. In addition, the “SIHeLa, selectivity index between L-02 and HeLa” value in assay [6] was determined as 2.85.

Take `O=C(O)c1ccc(N=C=S)cc1` [Compound 2, 4-Carboxyphenyl isothiocyanate, reference compound]: the IC50 in assay [1] (A549, 48 h) is 79.2 ± 2.52 µM; in assay [2] (HepG2, 48 h) it was greater than 100 µM; in assay [3] (A-375, 48 h), 43 ± 3.34 µM; in assay [4] (L02, 48 h) it was 67.8 ± 2 µM; in assay [5] (MDA-MB-231, 48 h) it was 82.1 ± 2.7 µM; in assay [6] (48 h), 45.7 ± 1.74 µM. In addition, in assay [6], the “SIHeLa, selectivity index between L-02 and HeLa” value stood at 1.48.

`C[C@H]1CCC/C=C/[C@@H]2C[C@H](OC(=O)/C=C\C(=O)OCCCCOC(=O)c3ccc(N=C=S)cc3)C[C@H]2[C@H](OC(=O)/C=C\C(=O)OCCCCOC(=O)c2ccc(N=C=S)cc2)/C=C/C(=O)O1` [Compound 8h, Bis(4-((4-isothiocyanatobenzoyl)oxy)butyl) O,O’-((1R,2E,6S,10E,11aS,13S,14aR)-6-methyl-4-oxo-1,6,7,8,9,11a,12,13,14,14a-decahydro-4H-cyclopenta[f][1]oxacyclotridecine-1,13-diyl) dimaleate]: the IC50 in assay [1] (setting [7]) was greater than 40 µM; in assay [2] (setting [8]), greater than 40 µM; in assay [3] (setting [9]), greater than 40 µM; in assay [4] (setting [10]), greater than 80 µM; in assay [5] (setting [11]), greater than 40 µM; in assay [6] (setting [12]) it was 8.48 ± 0.72 µM.

For `C[C@H]1CCC/C=C/[C@@H]2C[C@H](O)C[C@H]2[C@H](OC(=O)/C=C\C(=O)OCCCCCCOC(=O)c2ccc(N=C=S)cc2)/C=C/C(=O)O1` [Compound 9k, (1R,2E,6S,10E,11aS,13S,14aR)-13-Hydroxy-6-methyl-4-oxo-1,6,7,8,9,11a,12,13,14,14a-decahydro-4H-cyclopenta[f][1]oxacyclotridecin-1-yl (6-((4-isothiocyanatobenzoyl)oxy)hexyl) maleate], the IC50 was 8.34 ± 0.24 µM in assay [1] (setting [7]); 3.28 ± 0.27 µM in assay [2] (setting [8]); 7.27 ± 0.57 µM in assay [3] (setting [9]); 23.9 ± 1.23 µM in assay [4] (setting [10]); 2.61 ± 0.08 µM in assay [5] (setting [11]); 2.39 ± 0.1 µM in assay [6] (setting [12]).
